Results reported in patent US8563580B2, “Flavivirus inhibitors and methods for their use” (Georgetown University, priority 2008, dated 2013).

Columns and labels:
[1] = system: Dengue 2 replicon expressing BHK cells; test: Replicon inhibition assay (Renilla luciferase), Dengue 2 replicon expressing BHK cells; format: cell-based, Dengue virus (DENV2); details: for DENV2 BHK replicon inhibition (FIG. 2): 25 μM final concentration, 24 hours, BHK cells; for EC50: Dengue virus
Method: (§1) Baby Hamster Kidney (BHK) and African green monkey kidney epithelial cells (Vero) were cultured in Dulbecco's Modified Eagle Medium (DMEM) (Cellgro®; Mediatech, Inc., Manassas, Va.) supplemented with 10% fetal bovine serum, MEM nonessential amino acid (Cellgro®) (5 ml/liter), and Penicillin-Streptomycin (2.5 ml/liter). Dengue 2 replicon expressing BHK cells and WNV replicon expressing Vero cells were cultured in DMEM as described above containing additionally Geneticin or G418 (Fisher Scientific®, Pittsburgh, Pa.) to maintain the selective pressure of the replicon expressing cells.
(§2) Dengue 2 replicon expressing BHK cells and WNV replicon expressing Vero cells were plated 100 μl into a black 96 well plate (Greiner Bio-One; Monroe, N.C.) with 10^5 cells/ml concentrations. After 6 hours of incubation, 1 μl of each compound diluted in DMSO to 2.5 mM was added into each well to obtain a 25 μM as the final concentration. Cells were incubated at 37° C. in a humidified CO2 (5%) chamber for 24 hours. The media was then removed and the cells are washed with PBS before adding 20 μl of lysis buffer to each well. A Renilla luciferase assay was performed with the addition of 50 μl substrate (Promega Corporation; Madison, Wis.) with a 2 second delay and a 10 second measurement in a Centro LB 960 plate luminescence plate reader (Berthold Technologies; Oak Ridge, Tenn.). The data was analyzed and plotted with GraphPad Prism 5 (GraphPad Software, Inc.; La Jolla, Calif.).
Renilla luciferase activity was measured as described above 24 hours after the addition of the compounds.

[2] = Cytotoxicity assay (MTT), naïve BHK cells; format: cell-based; details: hamster, 18 hours incubation
Method: as §1
(§3) Naïve Vero cells were cultured in the presence of varying concentrations of the Compound 33, Compound 34, and Compound 35 to calculate CC50 values. In the same way, Compound 33, Compound 34, Compound 35, and Compound 36 were tested in BHK cells. Naïve BHK and Vero cells were prepared in 96-well plates as described above at various final concentrations. After 18 hours of incubation, 10 μl of MTT reagent (Chemicon; Temecula, Calif.) is added into each well. The cells were incubated for 2 hours before adding 100 μl of detergent and were read in a spectrophotometer as described in the manufacturer's protocol.

[3] = system: WNV replicon expressing Vero cells; test: Replicon inhibition assay (Renilla luciferase), WNV replicon expressing Vero cells; format: cell-based, West Nile virus (WNV); details: for WNV replicon inhibition (FIG. 1): 25 μM final concentration, 24 hours, Vero cells; for EC50: West Nile virus, Vero, 24 h
Method: as §1, §2
Specifically, the cells were prepared as above and the concentration of the compounds were varied (see Table 2). Renilla luciferase activity was measured as described above 24 hours after the addition of the compounds.

[4] = Cytotoxicity assay (MTT), naïve Vero cells; format: cell-based; details: African green monkey, 18 hours incubation
Method: as §1, §3

WNV protease = test: High Throughput Screen (HTS) protease assay; format: biochemical, West Nile virus (EG101 strain); details: 100 nl of 5 mg/ml compound in DMSO per 30.1 μl well; substrate Boc-Gly-Lys-Arg-AMC 50 μM; DMSO controls = 100% activity
Method: Procedures for expression and purification of WNV (EG101 strain) were similar to those described elsewhere by Mueller et al., Int. J. Biochem. Cell. Biol., 39: 606-14 (2007). Briefly, E. coli Top10 F′ cells (Invitrogen, Carlsbad, Calif.) were transformed with the protease expression plasmid. Cells were grown at 37° C. until the OD600 was ˜0.5. Cells were then induced with isopropyl-1-thio-β-D-galactopyranoside (American Bioanalytical, Natick, Mass.) (0.5 mM), and incubated for 4 h at 37° C. Cells were harvested by centrifugation (5000×g) for 15 min at 4° C., washed once with a buffer containing 50 mM Tris-HCl, pH 7.5, and 200 mM NaCl, centrifuged at 5000×g for 15 min at 4° C., and stored at -80° C. until used.
Proteases were purified by suspending bacterial pellets in 50 mM Hepes, pH 7.0, 500 mM NaCl, (buffer A) with 0.05 mg/ml lysozyme. Cells were incubated for 30 min on ice after addition of 10% stock solution of Triton X-100 (final concentration of 0.5%). Cells were disrupted by sonication for 2 min and the soluble fraction was collected after centrifugation (15,000×g) for 30 min at 4° C. The soluble fraction was incubated for 1 h at 4° C. with Talon resin (BD Bioscience, San Jose, Calif.) which was pre-equilibrated in buffer A. The affinity resin was centrifuged at (400×g) for 10 min at 4° C., washed three times with buffer A, and packed into a column. Washing of the column was continued with the buffer A containing 10 mM imidazole, followed by elution of the protease with buffer A containing 150 mM imidazole. The protease was concentrated and further purified by Sephadex G-75 gel filtration chromatography. The purified protease fractions were pooled and dialyzed against a buffer containing 50 mM Tris-HCl pH 7.5 and 300 mM NaCl (4×1 L). Aliquots (100 μl) were frozen at −80° C.
The protease assay (100 μl) described by Mueller et al., Int. J. Biochem. Cell. Biol. 39: 606-14 (2007) was adapted for a 384-well plate format (30.1 μl). Microtiter plates were loaded sequentially with 14 μl of the reaction buffer containing 200 mM Tris-HCl, pH 9.5, and 30% glycerol (TG buffer) using an automated Wellmate (Matrix, Hudson, N.H.) and 6 μl of WNV protease (0.05 μM) (as prepared above) in TG buffer containing 15 mM NaCl (3 mM final concentration). Plates were then centrifuged at 1000×g for 3 min at room temperature to mix samples and pool liquids at the bottom of the wells. Inhibitor compounds (100 nl of 5 mg/ml in dimethyl sulfoxide; DMSO) were added to each well in duplicate by a pin-transfer mechanism of a robotic delivery system. The final inhibitor concentrations in the assays varied due to different molecular weights of the compounds from the libraries that were screened. Plates were incubated at room temperature to allow for formation of protease/inhibitor complexes. The fluorogenic substrate, t-butyl-oxycarbonyl(Boc)-Gly-Lys-Arg-7-amino-4-methyl coumarin (AMC) (10 μl in TG buffer; 50 μM final concentration in the reaction mixture), was added using the Wellmate, and the plates were centrifuged for 3 min at 1000×g and incubated at room temperature for 15 min. Fluorescence was measured at excitation and emission wavelengths of 385 nm and 465 nm, respectively, on a Perkin-Elmer (Waltham, Mass.) spectrofluorometer. To validate the assay conditions, aprotinin (bovine pancreatic trypsin inhibitor, BPTI) was used as a positive control. Assay mixtures containing DMSO were used as negative controls. The average of fluorescence values in duplicate wells for a given compound was used to determine the percent activity by taking the values obtained with DMSO controls as 100%. Compounds 1-11, 18-32, and 37-101 above were identified. […] Compounds 12-17 are compounds related to those identified in the HTS screen that also show significant WNV protease inhibition, i.e., >95%.

Row | Compound | DENV2 BHK replicon inhibition (FIG. 2) [1] | EC50 ([1]; BHK, 24 h) [µM] | CC50 at 18 h [2] [µM] | WNV replicon inhibition (FIG. 1) [3] | EC50 [3] [µM] | CC50 at 18 h [4] [µM] | % Inhibition (reduction in protease activity) (WNV protease) [%] | EC50 ([1]; DENV2, BHK) [µM]
1 | Oc1c(CN2CCOCC2)cc(Cl)c2c1NCCC2 [Compound 36] | inhibitory | 63.1 | 220 |  |  |  |  | 
2 | Oc1c(CN2CCOCC2)cc(Cl)c2cccnc12 [Compound 34] | inhibitory | 35 | 170 | inhibitory | 14.3 | 355 |  | 
3 | Oc1c(C(Nc2nc3ccccc3s2)c2ccccc2)ccc2cccnc12 (stereo not shown) [Compound 13] |  |  |  |  |  |  | >95 | ~7.5
4 | Oc1c(CN2CCOCC2)ccc2cccnc12 [Compound 33] | inhibitory | 10.6 |  | inhibitory | 7.96 |  |  | 
5 | CCN(CC)Cc1cc(Cl)c2cccnc2c1O [Compound 35] | inhibitory | 2.35 | 70.1 | inhibitory | 3.38 | 60.9 |  | 
6 | Oc1ccccc1C(Nc1nc2ccccc2s1)c1ccc2cccnc2c1O (stereo not shown) [Compound 16] |  |  |  |  |  |  | >95 | ~4.5
7 | Oc1c(C(Nc2nccs2)c2cccc(OCc3ccccc3)c2)ccc2cccnc12 (stereo not shown) [Compound 17] |  |  |  |  |  |  | >95 | ~8.3
